One block for each compound: values may come before it.
Legend:
Protein cereblon = Protein cereblon (Homo sapiens, UniProt Q96SW2); test: Induction of CRBN degradation in human MM1.S cells assessed as maximum degradation at 100 nM incubated for 24 hrs relative to control; assay type: cell-based
[1] = biological target: T1, Tyrosine-protein kinase BTK (Homo sapiens, UniProt Q06187); test: Induction of BTK degradation in human K562 cells; assay type: cell-based
[2] = biological target: T1, Tyrosine-protein kinase BTK; test: Induction of BTK degradation in human K562 cells assessed as maximum degradation relative to control; assay type: cell-based
[3] = biological target: T2, Tyrosine-protein kinase Blk (Homo sapiens, UniProt P51451); test: Induction of BLK degradation in human K562 cells assessed as maximum degradation relative to control; assay type: cell-based
Target sequence in this assay (P51451 2-505 limits assumed): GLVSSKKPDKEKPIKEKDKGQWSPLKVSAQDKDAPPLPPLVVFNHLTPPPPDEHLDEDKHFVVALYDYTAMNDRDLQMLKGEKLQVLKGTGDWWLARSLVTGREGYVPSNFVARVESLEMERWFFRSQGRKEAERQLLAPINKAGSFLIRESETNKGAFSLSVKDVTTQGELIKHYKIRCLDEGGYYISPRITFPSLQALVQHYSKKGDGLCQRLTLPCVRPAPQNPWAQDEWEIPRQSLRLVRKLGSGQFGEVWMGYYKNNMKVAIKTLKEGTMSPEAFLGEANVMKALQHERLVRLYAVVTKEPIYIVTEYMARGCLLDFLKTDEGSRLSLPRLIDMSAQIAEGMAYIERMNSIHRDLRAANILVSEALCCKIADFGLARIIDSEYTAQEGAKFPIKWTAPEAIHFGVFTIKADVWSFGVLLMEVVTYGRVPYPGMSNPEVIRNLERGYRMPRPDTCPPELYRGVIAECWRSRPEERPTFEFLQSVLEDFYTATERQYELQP

[4] = biological target: T2, Tyrosine-protein kinase Blk; test: Induction of BLK degradation in human K562 cells; assay type: cell-based
Target sequence in this assay (P51451 whole entry): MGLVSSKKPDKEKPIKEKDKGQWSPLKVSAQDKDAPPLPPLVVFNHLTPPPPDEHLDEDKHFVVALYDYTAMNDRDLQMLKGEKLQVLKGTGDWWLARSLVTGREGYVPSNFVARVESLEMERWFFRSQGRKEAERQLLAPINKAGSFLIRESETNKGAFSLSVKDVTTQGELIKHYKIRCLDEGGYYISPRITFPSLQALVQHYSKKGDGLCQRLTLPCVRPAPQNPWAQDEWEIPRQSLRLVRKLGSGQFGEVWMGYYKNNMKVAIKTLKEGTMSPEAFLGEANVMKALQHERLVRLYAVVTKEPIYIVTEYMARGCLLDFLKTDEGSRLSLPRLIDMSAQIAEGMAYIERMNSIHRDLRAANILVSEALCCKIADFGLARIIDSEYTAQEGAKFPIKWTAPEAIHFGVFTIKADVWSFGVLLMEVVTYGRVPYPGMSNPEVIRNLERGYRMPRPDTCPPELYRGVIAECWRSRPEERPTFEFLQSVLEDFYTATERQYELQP

[5] = biological target: T1, Tyrosine-protein kinase BTK; test: Induction of BTK degradation in human Ramos cells assessed as maximum degradation at 300 nM relative to control; assay type: cell-based
[6] = biological target: T3, von Hippel-Lindau disease tumor suppressor (Homo sapiens, UniProt P40337); test: Induction of pVHL30 degradation in human HeLa cells incubated for 4 hrs; assay type: cell-based
[7] = biological target: T3, von Hippel-Lindau disease tumor suppressor; test: Binding affinity to human VHL by isothermal calorimetric assay
Target sequence in this assay (P40337 whole entry): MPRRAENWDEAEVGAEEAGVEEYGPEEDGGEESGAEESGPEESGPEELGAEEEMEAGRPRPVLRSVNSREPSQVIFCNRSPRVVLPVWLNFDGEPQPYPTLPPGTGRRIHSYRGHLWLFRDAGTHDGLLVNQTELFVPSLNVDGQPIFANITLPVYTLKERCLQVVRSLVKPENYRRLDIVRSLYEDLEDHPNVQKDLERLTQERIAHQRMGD

[8] = biological target: Transcription intermediary factor 1-alpha (Homo sapiens) (UniProt O15164); test: Induction of TRIM24 degradation in HEK293FT cells assessed as maximum degradation at 5 uM relative to control; assay type: cell-based
[9] = biological target: Transcription intermediary factor 1-alpha (Homo sapiens, UniProt O15164); test: Inhibition of His-tagged TRIM24 (unknown origin) expressed in Escherichia coli BL21(DE3)pLysS competent cells using biotinylated-H3K23ac peptide as substrate incubated for 30 mins by Alphascreen assay
[10] = biological target: Androgen receptor (Homo sapiens) (UniProt P10275); test: Induction of AR degradation in human 22Rv1 cells assessed as maximum degradation at 10 uM after 8 hrs relative to control; assay type: cell-based
[11] = biological target: T1, Tyrosine-protein kinase BTK; test: Induction of BTK degradation in human MINO cells; assay type: cell-based
[12] = biological target: T1, Tyrosine-protein kinase BTK; test: Induction of BTK degradation in human MINO cells assessed as maximum degradation relative to control; assay type: cell-based
A549 = test: Antiproliferative activity against human A549 cells; assay type: functional, cell-based
Huh-7 = test: Antiproliferative activity against human Huh-7 cells; assay type: functional, cell-based
HepG2 = test: Antiproliferative activity against human HepG2 cells; assay type: functional, cell-based
[13] = biological target: Dual specificity mitogen-activated protein kinase kinase; MEK1/2 (Homo sapiens) (UniProt P36507+Q02750); test: Induction of MEK degradation in human HT-29 cells assessed as maximum degradation at 100 nM after 12 hrs relative to control; assay type: cell-based
HT-29 = test: Antiproliferative activity against human HT-29 cells; assay type: functional, cell-based
MV4-11 = test: Antiproliferative activity against human MV4-11 cells
MCF7 = test: Antitumor activity against human MCF7 cells xenografted in mouse assessed as tumor growth inhibition; assay type: functional

T1 sequence (Q06187 whole entry): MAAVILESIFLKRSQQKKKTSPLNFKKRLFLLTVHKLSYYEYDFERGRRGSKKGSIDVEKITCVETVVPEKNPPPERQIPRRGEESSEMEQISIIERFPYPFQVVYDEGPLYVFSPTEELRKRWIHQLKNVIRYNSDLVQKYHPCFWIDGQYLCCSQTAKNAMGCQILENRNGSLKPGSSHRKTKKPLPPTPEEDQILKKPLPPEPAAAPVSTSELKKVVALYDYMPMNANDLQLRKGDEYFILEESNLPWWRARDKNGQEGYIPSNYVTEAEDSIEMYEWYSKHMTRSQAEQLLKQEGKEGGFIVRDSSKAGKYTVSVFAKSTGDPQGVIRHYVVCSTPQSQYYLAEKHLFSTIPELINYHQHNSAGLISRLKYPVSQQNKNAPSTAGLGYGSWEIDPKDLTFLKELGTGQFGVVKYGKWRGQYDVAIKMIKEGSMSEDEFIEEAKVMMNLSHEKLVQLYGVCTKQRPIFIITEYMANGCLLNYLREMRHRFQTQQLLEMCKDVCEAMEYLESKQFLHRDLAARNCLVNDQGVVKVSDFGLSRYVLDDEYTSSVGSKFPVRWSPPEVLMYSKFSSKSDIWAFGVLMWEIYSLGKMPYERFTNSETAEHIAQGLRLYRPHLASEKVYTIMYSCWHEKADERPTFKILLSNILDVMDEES
Transcription intermediary factor 1-alpha, sequence (O15164 whole entry): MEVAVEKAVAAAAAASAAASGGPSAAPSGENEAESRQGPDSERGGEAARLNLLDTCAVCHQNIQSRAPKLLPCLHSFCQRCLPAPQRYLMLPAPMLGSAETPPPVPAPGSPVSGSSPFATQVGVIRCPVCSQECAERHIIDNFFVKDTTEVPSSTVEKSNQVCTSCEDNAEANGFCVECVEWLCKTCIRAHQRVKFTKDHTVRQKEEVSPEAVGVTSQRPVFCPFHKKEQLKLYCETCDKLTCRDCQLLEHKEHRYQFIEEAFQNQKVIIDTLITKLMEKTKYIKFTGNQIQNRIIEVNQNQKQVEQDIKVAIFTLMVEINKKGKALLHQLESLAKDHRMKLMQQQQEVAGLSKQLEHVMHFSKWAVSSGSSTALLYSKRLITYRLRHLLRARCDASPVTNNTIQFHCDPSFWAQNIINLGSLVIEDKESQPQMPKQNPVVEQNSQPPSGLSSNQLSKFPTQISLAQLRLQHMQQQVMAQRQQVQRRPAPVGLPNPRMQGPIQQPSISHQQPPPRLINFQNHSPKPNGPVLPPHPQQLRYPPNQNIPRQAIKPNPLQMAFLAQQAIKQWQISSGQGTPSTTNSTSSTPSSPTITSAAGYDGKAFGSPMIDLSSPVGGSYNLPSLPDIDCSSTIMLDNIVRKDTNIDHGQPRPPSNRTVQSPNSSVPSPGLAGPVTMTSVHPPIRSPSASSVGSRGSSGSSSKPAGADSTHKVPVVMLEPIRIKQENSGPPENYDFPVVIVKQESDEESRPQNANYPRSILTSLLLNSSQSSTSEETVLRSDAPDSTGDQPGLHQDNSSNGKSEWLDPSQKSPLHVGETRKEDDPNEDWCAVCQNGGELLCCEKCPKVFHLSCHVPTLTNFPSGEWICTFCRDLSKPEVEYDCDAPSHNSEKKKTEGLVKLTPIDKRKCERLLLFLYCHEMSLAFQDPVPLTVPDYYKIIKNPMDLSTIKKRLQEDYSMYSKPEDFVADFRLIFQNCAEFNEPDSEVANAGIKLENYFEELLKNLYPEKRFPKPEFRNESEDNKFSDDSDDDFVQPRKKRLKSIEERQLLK
Androgen receptor (Homo sapiens), sequence (P10275 whole entry): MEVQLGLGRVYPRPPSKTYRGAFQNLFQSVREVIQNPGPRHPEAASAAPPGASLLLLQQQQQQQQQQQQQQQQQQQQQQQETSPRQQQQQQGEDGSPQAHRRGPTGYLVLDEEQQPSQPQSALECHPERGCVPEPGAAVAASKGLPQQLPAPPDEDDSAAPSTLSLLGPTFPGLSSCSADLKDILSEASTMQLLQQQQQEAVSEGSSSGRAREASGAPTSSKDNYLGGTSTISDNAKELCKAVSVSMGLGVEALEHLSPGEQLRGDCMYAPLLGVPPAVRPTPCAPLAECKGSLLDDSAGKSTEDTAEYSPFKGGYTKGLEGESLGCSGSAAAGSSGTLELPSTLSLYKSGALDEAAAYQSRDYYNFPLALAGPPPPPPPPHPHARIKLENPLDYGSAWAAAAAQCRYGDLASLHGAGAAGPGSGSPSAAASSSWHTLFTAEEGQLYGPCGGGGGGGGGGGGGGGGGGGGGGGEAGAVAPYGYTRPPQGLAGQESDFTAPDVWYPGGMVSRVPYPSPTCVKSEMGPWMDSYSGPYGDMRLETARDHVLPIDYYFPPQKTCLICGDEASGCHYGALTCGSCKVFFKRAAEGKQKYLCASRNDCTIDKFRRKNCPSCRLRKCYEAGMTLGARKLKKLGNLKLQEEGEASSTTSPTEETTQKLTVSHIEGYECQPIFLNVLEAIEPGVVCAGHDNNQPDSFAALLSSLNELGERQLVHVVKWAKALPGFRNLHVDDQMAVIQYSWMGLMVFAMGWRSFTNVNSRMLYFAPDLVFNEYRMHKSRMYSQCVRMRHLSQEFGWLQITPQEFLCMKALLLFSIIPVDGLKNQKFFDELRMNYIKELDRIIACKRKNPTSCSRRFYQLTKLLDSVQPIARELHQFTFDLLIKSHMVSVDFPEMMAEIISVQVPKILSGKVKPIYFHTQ
Dual specificity mitogen-activated protein kinase kinase; MEK1/2 (Homo sapiens), sequence (P36507 whole entry, looked up): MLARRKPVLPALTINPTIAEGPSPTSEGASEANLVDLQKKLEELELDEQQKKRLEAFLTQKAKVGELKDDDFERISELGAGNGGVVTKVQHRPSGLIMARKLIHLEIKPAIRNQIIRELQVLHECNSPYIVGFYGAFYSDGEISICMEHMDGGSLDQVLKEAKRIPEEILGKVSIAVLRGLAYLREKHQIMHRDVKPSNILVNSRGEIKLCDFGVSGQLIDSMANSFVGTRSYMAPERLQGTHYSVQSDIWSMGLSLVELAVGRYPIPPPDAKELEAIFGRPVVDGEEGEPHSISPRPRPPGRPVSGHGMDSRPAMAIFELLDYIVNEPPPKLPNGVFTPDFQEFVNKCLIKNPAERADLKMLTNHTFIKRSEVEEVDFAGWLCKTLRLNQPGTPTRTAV
Dual specificity mitogen-activated protein kinase kinase; MEK1/2 (Homo sapiens), sequence (Q02750 whole entry, looked up): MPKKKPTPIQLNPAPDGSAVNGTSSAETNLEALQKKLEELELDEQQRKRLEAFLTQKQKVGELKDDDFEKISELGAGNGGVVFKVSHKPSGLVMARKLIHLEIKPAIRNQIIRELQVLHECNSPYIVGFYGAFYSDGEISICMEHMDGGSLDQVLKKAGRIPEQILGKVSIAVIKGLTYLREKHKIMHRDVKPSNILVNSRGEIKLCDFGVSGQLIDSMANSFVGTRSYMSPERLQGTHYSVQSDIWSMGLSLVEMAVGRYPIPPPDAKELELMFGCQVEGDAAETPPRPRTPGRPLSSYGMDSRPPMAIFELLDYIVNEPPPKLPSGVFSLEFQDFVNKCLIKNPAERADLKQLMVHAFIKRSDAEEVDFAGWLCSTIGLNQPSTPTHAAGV
Transcription intermediary factor 1-alpha (Homo sapiens), sequence (O15164 whole entry): as the sequence (O15164 whole entry) above

- Emax (Protein cereblon): > 90%
Compound: Cc1ncsc1-c1ccc(CNC(=O)[C@@H]2C[C@@H](O)CN2C(=O)[C@@H](NC(=O)CCCCOCCCCCOCCCCCCNc2cccc3c2C(=O)N(C2CCC(=O)NC2=O)C3=O)C(C)(C)C)cc1 (some centres not stated)

- DC50 [1]: 136 nM
- Emax [2]: 88%
- Emax [3]: 75%
- DC50 [4]: 220 nM
Compound: C=CC(=O)N1C[C@@H](n2nc(-c3ccc(Oc4ccccc4)cc3)c3c(N)ncnc32)C[C@H]1C(=O)OCCOCCOCC(=O)N[C@H](C(=O)N1C[C@H](O)C[C@H]1C(=O)NCc1ccc(-c2scnc2C)cc1)C(C)(C)C

- Emax [5]: 100%
Compound: CN[C@@H](C)C(=O)N[C@H](C(=O)N1C[C@@H](NC(=O)COCCOCCOCCOCCN2CCN(C/C=C/C(=O)N3CCC[C@@H](n4nc(-c5ccc(Oc6ccccc6)cc5)c5c(N)ncnc54)C3)CC2)C[C@H]1C(=O)N[C@H]1CCCc2ccccc21)C1CCCCC1

- DC50 [6]: < 100 nM
- EC99 [6]: 10 nM
- Kd [7]: 11 nM
Compound: Cc1ncsc1-c1ccc(CNC(=O)[C@@H]2C[C@@H](O)CN2C(=O)[C@@H](NC(=O)COCCOCCOCCOCCOCCOC(=O)N[C@H](C(=O)N2C[C@H](O)C[C@H]2C(=O)NCc2ccc(-c3scnc3C)cc2)C(C)(C)C)C(C)(C)C)cc1

- Emax [8]: 72%
- IC50 [9]: 338 nM
Compound: CCCOc1cccc(Oc2cc3c(cc2NS(=O)(=O)c2cccc(C(=O)NCCOCCOCCOCC(=O)N[C@@H](C(=O)N4C[C@@H](O)C[C@@H]4C(=O)NCc4ccc(-c5scnc5C)cc4)C(C)(C)C)c2)n(C)c(=O)n3C)c1

- Emax [10]: 90%
Compound: CC1(C)[C@H](NC(=O)c2ccc(OCC(=O)NCCCOCCOCCOCCCN(C(=O)CCl)C(C(=O)NCc3ccccc3)c3ccc(Cl)c(Cl)c3)cc2)C(C)(C)[C@H]1Oc1ccc(C#N)c(Cl)c1 (some centres not stated)

- DC50 [11]: 6 nM
- Emax [12]: 85%
Compound: CC(C)(/C=C(\C#N)C(=O)N1CCC[C@@H](n2nc(-c3ccc(Oc4ccccc4)cc3)c3c(N)ncnc32)C1)CCCOCCOCCOCCOCCOc1cccc2c1C(=O)N(C1CCC(=O)NC1=O)C2=O (some centres not stated)

Compound: C[C@H]1[C@H](C)CC[C@]2(C(=O)NCCOCCOCCOCCNc3cccc4c3C(=O)N(C3CCC(=O)NC3=O)C4=O)CC[C@]3(C)C(=CC[C@@H]4[C@@]5(C)CC[C@H](O)C(C)(C)[C@@H]5CC[C@]43C)[C@H]12 (some centres not stated)
- IC50 (A549): 230 nM
- IC50 (Huh-7): 390 nM
- IC50 (HepG2): 380 nM

- IC50 [9]: 218 nM
Compound: CCCOc1cccc(Oc2cc3c(cc2NS(=O)(=O)c2ccc(OC)c(OC)c2)n(C)c(=O)n3C)c1

- Emax [13]: 90%
- IC50 (HT-29): 246 nM
Compound: Cc1ncsc1-c1ccc([C@H](C)NC(=O)[C@@H]2C[C@@H](OC(=O)CCCCn3cc(CNC(=O)CC[C@H](NC(=O)c4ccc(NCc5cnc6nc(N)[nH]c(=O)c6n5)cc4)C(=O)O)nn3)CN2C(=O)[C@@H](NC(=O)CCCCCCCCCCNCCCONC(=O)c2ccc(F)c(F)c2Nc2ccc(I)cc2F)C(C)(C)C)cc1

- IC50 (MV4-11): 94.6 nM
Compound: Cc1sc2c(c1C)C(c1ccc(Cl)cc1)=N[C@@H](CC(=O)NCCOCCOCCOCC(C)(COCCOCCOCCNC(=O)C[C@@H]1N=C(c3ccc(Cl)cc3)c3c(sc(C)c3C)-n3c(C)nnc31)COC(=O)NCCNc1cccc3c1C(=O)N(C1CCC(=O)NC1=O)C3=O)c1nnc(C)n1-2 (some centres not stated)

Compound: Cc1ncsc1-c1ccc(CNC(=O)[C@@H]2C[C@@H](O)CN2C(=O)[C@@H](NC(=O)COCCOCCOCCNC(=O)C[C@@H]2N=C(c3ccc(Cl)cc3)c3c(sc(C)c3C)-n3c(C)nnc32)C(C)(C)C)cc1
- TGI (MCF7): 59.8%
